Measurements as given in publication PMC2840623 (Biochemistry, 2010).

Assays:
[1] = molecular target: T1, epi-isozizaene synthase (EIZS) (Streptomyces coelicolor, UniProt Q9K499); assay: X-ray crystal structure, […] Å; type: binding; conditions: complex with 3 Mg2+ and BTAC; active site
T1 sequence (Q9K499 1-361): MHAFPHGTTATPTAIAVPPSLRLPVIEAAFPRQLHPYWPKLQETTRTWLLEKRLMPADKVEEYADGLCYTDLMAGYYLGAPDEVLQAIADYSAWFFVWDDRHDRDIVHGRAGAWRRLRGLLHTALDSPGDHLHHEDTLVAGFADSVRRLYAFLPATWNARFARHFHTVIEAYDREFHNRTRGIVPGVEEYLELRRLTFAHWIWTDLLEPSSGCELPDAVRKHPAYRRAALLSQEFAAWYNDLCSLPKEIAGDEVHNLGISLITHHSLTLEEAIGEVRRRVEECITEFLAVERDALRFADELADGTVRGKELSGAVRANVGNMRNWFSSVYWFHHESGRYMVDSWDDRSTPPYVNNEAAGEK

[2] = molecular target: epi-isozizaene synthase (EIZS) (Streptomyces coelicolor, UniProt Q9K499, F198A); assay: X-ray crystal structure, […] Å; type: binding; conditions: complex with 3 Mg2+ and PPi; active site, alternative orientation
Sequence of epi-isozizaene synthase (EIZS) (Streptomyces coelicolor, UniProt Q9K499, F198A) (Q9K499 whole entry F198A): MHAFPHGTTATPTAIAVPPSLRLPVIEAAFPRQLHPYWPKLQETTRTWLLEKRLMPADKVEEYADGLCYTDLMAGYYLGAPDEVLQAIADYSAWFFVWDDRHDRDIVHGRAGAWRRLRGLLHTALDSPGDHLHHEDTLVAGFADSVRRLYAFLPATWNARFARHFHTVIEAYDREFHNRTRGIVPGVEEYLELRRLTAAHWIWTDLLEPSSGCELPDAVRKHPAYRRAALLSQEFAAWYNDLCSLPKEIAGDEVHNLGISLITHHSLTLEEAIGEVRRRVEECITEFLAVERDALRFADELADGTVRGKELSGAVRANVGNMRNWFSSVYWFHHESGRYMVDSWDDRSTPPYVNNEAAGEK

## O=P(O)(O)OP(=O)(O)O [PPi, inorganic pyrophosphate]
[1]
  X-ray crystal structure, 1.60 Å: The PPi anion also accepts hydrogen bonds from the side chains of R194, K247

## CC[N+](CC)(CC)Cc1ccccc1 [BTAC, benzyltriethylammonium cation]
[2]
  X-ray crystal structure, 1.64 Å: the BTAC molecule occupies an alternative position
